Results on one compound are retold here after PMC12747546, “Homoharringtonine suppresses acute myeloid leukemia progression by orchestrating EWSR1 phase separation in an m^6A‐YTHDF2‐dependent mechanism” (iMeta, 2025).

What all share (test): microscale thermophoresis
Common to all, as to conditions: EWSR1-C mutant; read-out: binding constants
A general note: Microscale thermophoresis detects binding through changes in fluorescence in a small temperature gradient.

In assay [1] the target is T1, EWSR1-C (GFP-EWSR1-C) (Homo sapiens, UniProt Q01844, I400A).
T1 construct: C-terminal region 301-656 (contains RNA recognition motif 353-453), GFP fusion, overexpressed in HEK293T, lysate
T1 sequence (Q01844 301-656 I400A): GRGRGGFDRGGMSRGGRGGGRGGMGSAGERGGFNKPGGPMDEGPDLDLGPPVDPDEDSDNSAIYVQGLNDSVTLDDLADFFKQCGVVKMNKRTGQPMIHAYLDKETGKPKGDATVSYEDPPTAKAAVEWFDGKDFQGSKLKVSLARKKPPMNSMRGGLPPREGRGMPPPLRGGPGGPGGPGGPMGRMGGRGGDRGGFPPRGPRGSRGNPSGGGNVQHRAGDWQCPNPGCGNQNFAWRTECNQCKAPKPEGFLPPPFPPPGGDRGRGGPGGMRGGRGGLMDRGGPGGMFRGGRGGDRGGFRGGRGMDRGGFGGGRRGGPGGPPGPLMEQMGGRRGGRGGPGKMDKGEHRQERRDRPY
The procedure:
(§1) microscale thermophoresis on EWSR1-C (GFP-EWSR1-C) | The binding affinity of HHT to these EWSR1 mutants was assessed through MST

The target of assay [2] is T2, EWSR1-C (GFP-EWSR1-C) (Homo sapiens, UniProt Q01844, P396A).
T2 construct: C-terminal region 301-656 (contains RNA recognition motif 353-453), GFP fusion, overexpressed in HEK293T, lysate
T2 sequence (Q01844 301-656 P396A): T1 sequence (Q01844 301-656 I400A) with P96A, A100I
The procedure:
as §1

Assay [3] has as its target T3, EWSR1-C (GFP-EWSR1-C) (Homo sapiens, UniProt Q01844, M397A).
T3 construct: C-terminal region 301-656 (contains RNA recognition motif 353-453), GFP fusion, overexpressed in HEK293T, lysate
T3 sequence (Q01844 301-656 M397A): T1 sequence (Q01844 301-656 I400A) with M97A, A100I
The protocol: as §1

Assay [4] deals with T4, EWSR1-C (GFP-EWSR1-C) (Homo sapiens, UniProt Q01844, T393A).
T4 construct: C-terminal region 301-656 (contains RNA recognition motif 353-453), GFP fusion, overexpressed in HEK293T, lysate
T4 sequence (Q01844 301-656 T393A): T1 sequence (Q01844 301-656 I400A) with T93A, A100I
The procedure: as §1

Residue numbers refer to the chain shown, from its start.

For `COC(=O)C[C@](O)(CCCC(C)(C)O)C(=O)O[C@@H]1C(OC)=C[C@]23CCCN2CCc2cc4c(cc2[C@H]13)OCO4` [Homoharringtonine], the Kd at EWSR1-C (GFP-EWSR1-C) [1] turned out to be 35.7 µM; on EWSR1-C (GFP-EWSR1-C) [2] it was 94.6 µM; at EWSR1-C (GFP-EWSR1-C) [3] it was 9.75 µM; on EWSR1-C (GFP-EWSR1-C) [4], 81 µM.
